The test system of this data set is aqueous solubility, 1x PBS pH 7.4, UV, 18 h. Put plainly: aqueous solubility in phosphate buffer, ADME assay, biophysical, 1x PBS (AID 463237). Particulars: at 100 µM; active compounds read high.

≈ marks a conversion by molar mass, not a printed value.

The values that follow come from PubChem BioAssay AID463237 (Sanford-Burnham Center for Chemical Genomics, 2010).

On to `CCCCn1c(NC(=O)c2ccc(F)cc2)c(C#N)c2nc3ccccc3nc21`, for which the solubility – broadly, the dissolved amount per volume that the medium holds – is 14 µg/mL (≈ 36.1 µM).
